Data on 13 compounds can be found in US8841306B2, “Antimicrobials” (Panacea Biotec Ltd., priority 2008, dated 2014).

One test deals with E. faecalis ATCC 29212. Description: In-vitro antibacterial activity, broth microdilution MIC (CLSI). The test is classed as cell-based. Conditions: Enterococcus faecalis, ATCC29212, 35±2° C., 16-20 h, read visually. How it is done:
(§1) The in-vitro antibacterial activity of the compounds of the present invention (as described in Table 2) was determined by a broth microdilution following the guidelines prescribed by the Clinical and Laboratory Standards Institute (CLSI). This method is described in the CLSI Document M7-A7, Vol. 26, No. 2, “Methods for Dilution Antimicrobial Susceptibility Test for Bacteria that Grow Aerobically; Approved Standard-Seventh Edition”, which is incorporated herein by reference. Minimum Inhibitory Concentration (MIC) is defined as the minimum concentration of test compound which inhibits the growth of bacteria as visible or seen by the naked eye. This test can also be carried out by agar dilution method.
(§2) The compounds of the present invention were tested against a panel of standard microorganisms obtained from ATCC (American type culture collection), and a Linezolid resistant strain (LRSA) i.e. PTCC 100 (Panacea type culture collection). PTCC 100 is a repository that has been created by Panacea Biotec Ltd. at Mohali, India for storage and maintenance of clinical, bacterial and other isolates developed in-house which are used for testing the test compounds. Linezolid was used as comparator in all the tests.
(§3) In the broth microdilution method, the compound was dissolved in dimethylsulfoxide and two fold serial dilutions were carried out in 96 well microtitre plates. The inoculum was prepared by adjusting the turbidity of actively growing broth culture and added to the wells to obtain a final bacterial count of ˜2-5×10^4 CFU/well. The microtitre plates were incubated at 35±2° C. for 16-20 h and then read visually.
For orientation: Dilution methods test growth across graded concentrations, often in twofold steps.

The test system of test [1] is E. faecium ATCC 700221 (VRE). The description is as above. Type of test: cell-based. Conditions: Enterococcus faecium, 35±2° C., 16-20 h, read visually, read-out: MIC E. faecium ATTC 700221 (VRE). On the procedure:
as §1, §2, §3

Test [2] relates to S. aureus ATCC 29213 (MSSA). The test is described as above. The test is classed as cell-based. Conditions: Staphylococcus aureus, 35±2° C., 16-20 h, read visually. On the procedure: as §1, §2, §3
Test [3] has as its system S. aureus ATCC 33591 (MRSA). The test is described as above. The test is classed as cell-based. To be noted: Staphylococcus aureus, 35±2° C., 16-20 h, read visually. On the procedure:
as §1, §2, §3

Test [4] relates to S. aureus PTCC 100 (LRSA). The test is described as follows: In-vitro antibacterial activity, broth microdilution MIC against linezolid resistant strain. Type of test: cell-based. To be noted: Staphylococcus aureus. On the procedure: as §1, §2, §3
PTCC 100 was developed by a procedure similar to the one cited in Antimicrobial Agents and Chemotherapy, 2008, 52, 1940. Female Swiss albino mice (18-22gm) bred in-house were inoculated with S. aureus ATCC 29213 strain and dosed orally with Linezolid at 5 mg/kg/p.o, next day mice were sacrificed after 20-22 h and intraperitoneal swab was taken and streaked onto Mueller Hinton Agar plates containing 4 and 8 μg/mL of Linezolid. Colonies obtained on 4 μg/mL and 8 μg/mL were selected from plates and further passaged into mice (SAM), dosed orally with Linezolid at 7.5 mg/kg/p.o. Mice were sacrificed and intraperitoneal swabs were streaked onto plates containing higher linezolid concentration i.e 16 and 32 μg/mL and the process was repeated by incrementally increasing the concentration of Linezolid upto 10 mg/kg/p.o in mice, to finally obtain S. aureus strains resistant to Linezolid at 64 μg/mL.

In a further test the test system is S. aureus ATCC 29213. Description: In-vivo efficacy: systemic model of infection in mice. More on the design: species or system Staphylococcus aureus. To be noted: female Swiss albino mice, i.p. infection, oral dosing at 1 h and 5 h post infection, 50% survival at 7 days. On the procedure: Female Swiss albino mice bred in-house were selected in weight range of 19-23 gm (n=6/group). S. aureus ATCC 29213 was grown overnight for 18-20 h, on Columbia Blood Agar (Difco; BD). Next day bacterial inoculum was prepared with optical density (O.D) corresponding to cell density of ˜2˜10^9 CFU/ml and mixed with 10% of gastric mucin (Difco; BD) in ratio of 1:1 to obtain final mucin concentration of 5% w/v. 0.5 mL of bacterial inoculum was injected intraperitoneally (i.p) into all the mice. Compounds obtained in the present invention, hereinafter referred as Test compounds were formulated in 0.25% Carboxymethylcellulose (C.M.C) and Tween 80, at different dose levels and then administered orally at 1 h and 5 h post infection. Linezolid was used as standard control. Saline was administered to the infection control group which received neither the test compound nor the standard drug. […] Numbers of survivors in each group were noted and ED50 of test compound on the basis of 50% survival was calculated through regression analysis.

Where [5] appears, read: PTCC100, read-out: MIC S. aureus PTCC 100 (LRSA).

Converted amounts (≈) assume the structure as drawn. Read-outs that look alike come from different tables or passages of the source.

As a reminder, the MIC is the lowest concentration found to suppress growth. Turning to `CC(=O)NC[C@H]1CN(c2ccc(N3CCOCC3)c(F)c2)C(=O)O1` [Linezolid, reference compound], the MIC against E. faecalis ATCC 29212 was 2 µg/mL (≈ 5.93 µM); in test [1] it was 2 µg/mL (≈ 5.93 µM); in test [2] it was 2 µg/mL (≈ 5.93 µM); in test [3], 1 µg/mL (≈ 2.96 µM); in test [4] (setting [5]), 32 µg/mL (≈ 94.9 µM); in test [4] (PTCC100, read-out: MIC of isolated colonies (PTCC 100)), 64 µg/mL. Further, in the test with S. aureus ATCC 29213, the “ED50 values S. aureus ATCC 29213” value came to 6.0 mg/kg/p.o.

On to `CC(=O)NC[C@H]1CN(c2cc(F)c(N3CCN(C(=O)[C@H](CC(C)C)NC(=O)c4cn5ccncc5n4)CC3)c(F)c2)C(=O)O1` [Compound 2], for which the MIC against E. faecalis ATCC 29212 turned out to be 2 µg/mL (≈ 3.26 µM); in test [1], 1 µg/mL (≈ 1.63 µM); in test [2], 2 µg/mL (≈ 3.26 µM); in test [3], 2 µg/mL (≈ 3.26 µM); in test [4] (setting [5]) it was 4 µg/mL (≈ 6.53 µM).

Regarding `COC(=O)NC[C@H]1CN(c2cc(F)c(N3CCN(C(=O)[C@H](C)NC(=O)c4ccc(F)nc4)CC3)c(F)c2)C(=O)O1` [Compound 196], the MIC against E. faecalis ATCC 29212 turned out to be 0.5 µg/mL (≈ 0.886 µM); in test [1] it was 0.25 µg/mL (≈ 0.443 µM); in test [2], 0.5 µg/mL (≈ 0.886 µM); in test [3], 0.5 µg/mL (≈ 0.886 µM).

`COC(=O)NC[C@H]1CN(c2cc(F)c(N3CCN(C(=O)[C@H](CO)NC(=O)c4cn5ccncc5n4)CC3)c(F)c2)C(=O)O1` [Compound 4]: the MIC in the test on E. faecalis ATCC 29212 was found to be 0.5 µg/mL (≈ 0.83 µM); in test [1], 0.5 µg/mL (≈ 0.83 µM); in test [2] it was 0.5 µg/mL (≈ 0.83 µM); in test [3], 0.5 µg/mL (≈ 0.83 µM); in test [4] (setting [5]), 1 µg/mL (≈ 1.66 µM).

Regarding `COC(=O)NC[C@H]1CN(c2cc(F)c(N3CCN(C(=O)[C@H](C)NC(=O)c4cn5ccncc5n4)CC3)c(F)c2)C(=O)O1` [Compound 5], the MIC against E. faecalis ATCC 29212 stood at 0.5 µg/mL (≈ 0.852 µM); in test [1] it was 0.5 µg/mL (≈ 0.852 µM); in test [2], 0.5 µg/mL (≈ 0.852 µM); in test [3] it was 0.5 µg/mL (≈ 0.852 µM); in test [4] (setting [5]), 1 µg/mL (≈ 1.7 µM).

As for `CC(=O)NC[C@H]1CN(c2cc(F)c(N3CCN(C(=O)CNC(=O)c4cn5ccncc5n4)CC3)c(F)c2)C(=O)O1` [Compound 6], the minimal inhibitory concentration (MIC) in the test on E. faecalis ATCC 29212 is 0.5 µg/mL (≈ 0.898 µM); in test [1] it was 0.5 µg/mL (≈ 0.898 µM); in test [2], 0.5 µg/mL (≈ 0.898 µM); in test [3] it was 0.5 µg/mL (≈ 0.898 µM); in test [4] (setting [5]) it was 1 µg/mL (≈ 1.8 µM).

Take `COC(=O)NC[C@H]1CN(c2cc(F)c(N3CCN(C(=O)[C@H](C)NC(=O)c4cccnc4F)CC3)c(F)c2)C(=O)O1` [Compound 197]: the minimal inhibitory concentration (MIC) against E. faecalis ATCC 29212 worked out at 0.5 µg/mL (≈ 0.886 µM); in test [1], 0.25 µg/mL (≈ 0.443 µM); in test [2], 1 µg/mL (≈ 1.77 µM); in test [3], 0.5 µg/mL (≈ 0.886 µM).

In the case of `COC(=O)NC[C@H]1CN(c2ccc(N3CCCN(C(=O)CNC(=O)c4cn5ccncc5n4)CC3)c(F)c2)C(=O)O1` [Compound 25], the MIC against E. faecalis ATCC 29212 was 1 µg/mL (≈ 1.76 µM); in test [1], 1 µg/mL (≈ 1.76 µM); in test [2] it was 2 µg/mL (≈ 3.52 µM); in test [3], 2 µg/mL (≈ 3.52 µM).

Regarding `C[C@H](NC(=O)c1cn2cccnc2n1)C(=O)N1CCN(c2c(F)cc(N3C[C@H](CNC(=O)c4ccno4)OC3=O)cc2F)CC1` [Compound 190], the MIC is 0.25 µg/mL (≈ 0.401 µM) in the test on E. faecalis ATCC 29212, 0.5 µg/mL (≈ 0.802 µM) in test [1], 0.25 µg/mL (≈ 0.401 µM) in test [2] and 0.25 µg/mL (≈ 0.401 µM) in test [3].

On to `COC(=O)NC[C@H]1CN(c2ccc(N3CCN(C(=O)CNC(=O)c4cn5ccncc5n4)CC3)c(F)c2)C(=O)O1` [Compound 3], for which the MIC in the test on E. faecalis ATCC 29212 was 0.5 µg/mL (≈ 0.902 µM); in test [1] it was 0.25 µg/mL (≈ 0.451 µM); in test [2], 0.5 µg/mL (≈ 0.902 µM); in test [3], 0.5 µg/mL (≈ 0.902 µM); in test [4] (setting [5]), 2 µg/mL (≈ 3.61 µM).

Take `COC(=O)NC[C@H]1CN(c2cc(F)c(N3CCN(C(=O)CNC(=O)c4cn5ccncc5n4)CC3)c(F)c2)C(=O)O1` [Compound 1]: the minimum inhibitory concentration (MIC) in the test on E. faecalis ATCC 29212 turned out to be 0.5 µg/mL (≈ 0.873 µM); in test [1], 0.25 µg/mL (≈ 0.437 µM); in test [2] it was 0.5 µg/mL (≈ 0.873 µM); in test [3], 0.25 µg/mL (≈ 0.437 µM); in test [4] (setting [5]), 0.25 µg/mL (≈ 0.437 µM).

For `COC(=O)NC[C@H]1CN(c2cc(F)c(N3CCN(C(=O)CNC(=O)c4ccc(Cl)nc4)CC3)c(F)c2)C(=O)O1` [Compound 130], the MIC with E. faecalis ATCC 29212 was 0.25 µg/mL (≈ 0.441 µM); in test [1], 0.125 µg/mL (≈ 0.22 µM); in test [2], 0.25 µg/mL (≈ 0.441 µM); in test [3] it was 0.25 µg/mL (≈ 0.441 µM); in test [4] (setting [5]), 8 µg/mL (≈ 14.1 µM).

As for `CC(=O)NC[C@H]1CN(c2cc(F)c(N3CCN(C(=O)C4(NC(=O)c5cn6ccncc6n5)CCCC4)CC3)c(F)c2)C(=O)O1` [Compound 7], the MIC in the test on E. faecalis ATCC 29212 came out at 8 µg/mL (≈ 13.1 µM); in test [1] it was 8 µg/mL (≈ 13.1 µM); in test [2], 32 µg/mL (≈ 52.4 µM); in test [3], 16 µg/mL (≈ 26.2 µM).
